The text below walks through data of patent US5552156A, “Liposomal and micellular stabilization of camptothecin drugs” (Ohio State University, priority 1995, dated 1996).

Each structure is given as a SMILES string.

What all share (format): physicochemical
Data set [1] can be described thus: Fluorescence excitation and emission spectra of camptothecin drugs free in solution and bound to liposomes. An excerpt:
The camptothecin drugs are intrinsically intensely fluorescent. Fluorescence is associated with the extended conjugation of the quinoline ring system. The liposomes of Examples 1-7 were characterized for the presence of the camptothecin drugs, using excitation and emission spectrography, and fluorescence anisotropy.
(§1) Steady-state fluorescence measurements were obtained on a SLM Model 4800C. spectrofluorometer with a thermostated cuvette compartment. This instrument was interfaced with an IBM PS/2 model 55 SX computer. Excitation and emission spectra were recorded with an excitation resolution of 8 nm and an emission resolution of 4 nm. In all cases spectra were corrected for background fluorescence and scatter from unlabeled lipids or from solvents by subtraction of the spectrum of a blank. Steady-state fluorescence intensity measurements were made in the absence of polarizer. Steady-state anisotropy (a) measurements were determined with the instrument in the "T-format" for simultaneous measurement of two polarized intensities. The alignment of polarizers were checked routinely using a dilute suspension of 0.25 μm polystyrene microspheres from Polysciences, Inc, Warrington, Pa., in water; anisotropy values of >0.99 were obtained. The anisotropy was calculated from a=(Ivv -GlVH)/(Ivv +GIVH), where G-IVH /IHH and the subscripts refer to vertical and horizontal orientations of the excitation and emission polarizers, respectively.
(§2) Anisotropy measurements for camptothecin, camptothecin carboxylate sodium salt, and 10,11-methylenedioxycamptothecin were conducted using exciting light of 370 nm and 420 nm long wave pass filters on each emission channel in order to isolate the fluorescence signal from background scatter and signal. For topotecan a 400 nm excitation wavelength and a 500 nm emission filter were used and for 9-aminocamptothecin a 375 nm excitation and a wavelength 420 nm emission filter were used. For AMC and CMC, a 370 nm excitation wavelength and a 400 nm emission filter were used. For 10-hydroxycamptothecin 375 nm excitation wavelength 500 nm emission filter was used. Emission filters were obtained from Oriel Corp. Stamford, Conn. The combination of exciting light and emission filters allows one to adequately separate the fluorescence from the background signal. The contribution of background fluorescence, together with scattered light, was typically less than 1% of the total intensity. Since the lactone ring of the camptothecin drug undergoes hydrolysis in aqueous medium, all measurements were completed within the shortest possible time, less than 1 minute after mixing the drug stock solution with PBS or the liposomes. In each case, analysis was initiated immediately after mixing the drug stock solution with PBS or with the liposomes. All measurements were performed at 37° C. unless otherwise noted.
The relative fluorescence intensity of 1×10^-6 M of camptothecin free in PBS buffer at 37° C. is shown. The emission spectra of the camptothecin was recorded using exciting light of 370 nm.
An exciting light of 390 nm was used to record the emission spectra of topotecan. A decrease in the emission intensity is observed for topotecan associated with the DMPG liposome.
All spectra were recorded using camptothecin drug concentrations of 2
μM. The DMPC and DMPG concentrations were 0.29 M. Experiments were
conducted in PBS buffer at 37° C.
Also found in Table II is a relative index of the emission intensity levels from these camptothecin drugs in PBS at their respective excitation and emission λMAX.

Data set [2] is described as follows: Steady-state fluorescence anisotropy in solvents and liposomes. As to conditions: pH 3, 37° C. The protocol: as §1, §2
While the spectral changes provide qualitative evidence that the camptothecin drugs bind the liposome membranes, fluorescence anisotropy titration, offers the most sensitive means for quantitatively assessing the extent of the binding. The fluorescence anisotropy titration was performed according to the method of Burke and Tritton, Biochemistry 24: 1768-1776 (1985).
A steady-state fluorescence anisotropy (a) measurement is related to the rotational rate of the fluorescent molecule through the Perrin Equation: […]
where a0 is the limiting fluorescence anisotropy value, that is, the anisotropy value in the absence of depolarizing rotations, T is the excited-state lifetime, and .phi. is the rotational correlative time of the fluorophore. According to Equation 1, changes in either the T or .phi. values of a fluorescent compound can modulate its steady-state anisotropy.
The limiting fluorescence anisotropy (a0) values were also measured. The maximum values of (a) were obtained by dissolving the camptothecin drugs in the viscous solvent glycerol and cooling the samples to low temperatures. Steady-stated anisotropy (a) values were determined for samples containing 1 μM drug at 37° C.
Where the solvent viscosity is high and temperature is low, depolarizing rotations are at a minimum. By extrapolating these (a) values to -25° C., the limiting anisotropy values (a0) for the camptothecin drugs, were determined. […]

Data set [3] can be described thus: HPLC assay of lactone ring hydrolysis, free in PBS or associated with liposomes or micelles. Here is the method: A high performance liquid chromatography assay was used to determine the rate of hydrolysis of camptothecin and topotecan free in aqueous solution and to compare such rates with the rate of hydrolysis for the same drugs when bound to the DMPG and DMPC liposome membranes. The assay was conducted under near physiological conditions; the pH was 7.4, the temperature was 37° C. and the ionic strength was physiological. A Spectroflow model 980 fluorescence detector coupled to an HP 3392A integrator which acquired and processed the chromatograms, was used. For camptothecin, an Ultrasphere ODS C-18 250 mm long column was used. The mobile phase consisted of 32% acetonitrile, 67% 0.1M acetate buffer, pH 5.5, and 1% 01.M sodium dodecylsulfate at a flow rate of 1 mL/min. The detector was set to 370 nm excitation wavelength and a 418 nm long pass emission filter. A 1 μM solution of camptothecin in PBS was prepared and incubated at 37° C. Immediately after mixing the drug stock solution with PBS and at intervals of 5 min thereafter, 50 μL aliquots were taken out and mixed with 150 μL methanolic internal standard, 9-toluoylamidocamptothecin and either analyzed immediately or kept cold under dry ice. 150 μL of this mixture was diluted with 125 μL water and 200 μL was injected. The ratio of the peak areas corresponding to the intact lactone form of the camptothecin drug and the internal standard at a particular time was normalized to that at the time of mixing and was considered as the concentration of the intact lactone form.
For topotecan the excitation wavelength was 362 nm and the emission was observed through a 470 long wave pass filter. The stationary phase was Waters Nova-Pak C-18 150mm long column. The mobile phase consisted of 500 mL 0.1M KH2 PO4, 550 mL acetonitrile, 4.2 mL triethylamine (distilled over molecular sieves), 4.44 g sodium dioctylsulfosuccinate (DOSS), and 970 ml water. The pH was adjusted to 6.0 with H3 PO4. Internal standard solution contained 50×10^-9 g acridine from Eastman and 20×10^-3 M DOSS in methanol and was always kept cold at ≤-20° C. Next 150 μL or cold internal standard solution was mixed with 50 μL aliquot containing topotecan, centrifuged for 1 minute and the supernatant was either analyzed immediately or stored at -20° C. for analysis at a later time, within 2 hours. Samples were monitored at time points from 0 minutes, that is, immediately following dissolution, up to 72 hours.
The kinetics of lactone ring hydrolysis for free camptothecin, CMC and topotecan are shown in of FIGS. 7a, 7b and 7c. Analysis of the decay profile for camptothecin, CMC and topotecan free in PBS was accomplished using a nonlinear least squares program.

A short description of data set [4]: Overall association constant by fluorescence anisotropy titration, DMPC liposomes. As to conditions: DMPC, pH 3.0.

As to `CCC1(O)C(=O)OCc2c1cc1n(c2=O)Cc2cc3c(N)cccc3nc2-1` (centres unmarked) [9-aminocamptothecin], the “λMAX emission, DMPC” value in data set [1] (DMPC liposomes 0.29 M, pH 7.4, 37° C.) stood at 442 nm; in data set [1] (pH 3.0, DMPC liposomes) it was 477 nm. In addition, in data set [1] (DMPG liposomes 0.29 M, pH 7.4, 37° C.), the “λMAX emission, DMPG” value is on record as 436 nm. In addition, the “shift of emission maxima upon decrease of pH / protonation” value in data set [1] (free in PBS) is on record as “about 25 nm”. For the same compound, in data set [1] (free in PBS, pH 7.4), the “reduction in emission intensity levels relative to camptothecin” value was 1000 -fold. The “λMAX emission, PBS” value in data set [1] (free in PBS, pH 7.4, 37° C.) came to 439 nm; in data set [1] (pH 3.0, free in PBS) it was 464 nm. Besides, the “Relative Fluorescence” value in data set [1] (in PBS, pH 7.4, at excitation and emission λMAX) is reported as 0.001; in data set [1] (pH 3.0, PBS) it was 0.001. Besides, the λMAX excitation in data set [1] (pH 3.0) is reported as 381 nm; in data set [1] (pH 7.4, 2 μM drug, PBS, 37° C.), 381 nm. For the same compound, in data set [1] (pH 3.0, DMPC), the “spectral shift on association with DMPC liposomes, towards the blue region” value is on record as 13 nm. For the same compound, in data set [2] (DMPC liposomes), the “steady-state anisotropy (a), DMPC” value was 0.190. The “steady-state anisotropy (a), PBS” value in data set [2] (PBS) amounted to 0.009. In data set [3] (DMPC and DMPG liposomes), the “lactone hydrolysis when associated with liposomes” value is “some hydrolysis occurred at 1 hour”. The “C/L drug DMPC Lip.” value in data set [3] (DMPC liposomes, pH 7.4, 37° C.) is on record as 0.45. For the same compound, in data set [3] (DMPC liposomes, pH 7.4, 37° C.), the “t1/2 drug DMPC Lip.” value came out at 56 min. Also, the “C/L drug DMPG Lip.” value in data set [3] (DMPG liposomes, pH 7.4, 37° C.) is 0.15. The “t1/2 drug DMPG Lip.” value in data set [3] (DMPG liposomes, pH 7.4, 37° C.) was found to be 49 min. In addition, the “lactone ring hydrolysis at 5 hours” value in data set [3] (DMPG or DMPC liposomes, 5 hours) is listed as not above 40%. Also, in data set [3] (final equilibrium, free in PBS, pH 7.4, 37° C.), the “carboxylate/lactone ratio (C/L) free drug” value is given as 6.0. Also, the t1/2 free drug in data set [3] (lactone hydrolysis, free in PBS, pH 7.4, 37° C.) came out at 22.5 min. The “overall association constant K, DMPC” value in data set [4] was 25 M⁻¹.
